We go through eight compounds from US20120141496A1, “IAP BIR DOMAIN BINDING COMPOUNDS” (AEGERA THERAPEUTICS, INC., priority 2007, published 2012).

One assay relates to SKOV-3. Kind of assay: Viability assay (MTT based), SKOV-3. It is filed as cell-based. To be noted: Homo sapiens, SK-OV-3, SKOV-3 cells, 72 hours, read-out: SKOV-3 ED50. On the procedure: (§1) MDA-MD-231 (breast) and SKOV-3 cancer cells were cultured in RPMI1640 media supplemented with 10% FBS and 100 units/mL of Penicillin and Streptomycin.
(§2) Viability assays were done on a number of cells including MDA-MB-231, SKOV-3, H460, PC3, HCT-116, and SW480 cells. Cells were seeded in 96 well plates at a respective density of 5000 and 2000 cells per well and incubated at 37° C. in presence of 5% CO2 for 24 hours. Selected compounds were diluted into the media at various concentration ranging from 0.01 uM up to 100 uM. Diluted compounds were added onto the MDA-MB-231 cells. For the MDA-MB-231 SKOV3, H460, PC3, HCT-116, and SW480 cells, the compounds were added either alone or in presence of 1-3 ng/ml of TRAIL. After 72 hours cellular viability was evaluated by MTT based assays.

A further assay concerns MDA-MB-231. Nature of the assay: Viability assay (MTT based), MDA-MB-231. To be noted: Homo sapiens, MDA-MB-231 cells, 72 hours, read-out: MDA-MB-231 ED50. It is filed as cell-based. As to the method: as §1, §2

Turning to `CN[C@@H](C)C(=O)N[C@@H](Cc1ccc(C#CCO[C@H](C)[C@H](NC(=O)[C@H](C)NC)C(=O)N2CCC[C@H]2CN(CCc2ccccc2)C(=O)C(F)(F)F)cc1)C(=O)N1CCC[C@H]1CN(CCc1ccccc1)C(=O)C(F)(F)F` [Compound 1], the EC50 in the assay on SKOV-3 came to 131 nM; in the assay on MDA-MB-231 it was 17 nM.

Turning to `CN[C@@H](C)C(=O)N[C@@H](Cc1ccc(-c2ccc(C[C@H](NC(=O)[C@H](C)NC)C(=O)N3CCC[C@H]3CN(CCc3ccccc3)C(=O)C(F)(F)F)cc2)cc1)C(=O)N1CCC[C@H]1CN(CCc1ccccc1)C(=O)C(F)(F)F` [Compound 2], the EC50 with MDA-MB-231 was 150 nM. On to `CN[C@@H](C)C(=O)N[C@@H](Cc1ccc(C#CC#Cc2ccc(C[C@H](NC(=O)[C@H](C)NC)C(=O)N3CCC[C@H]3CN(CCc3ccccc3)C(=O)C(F)(F)F)cc2)cc1)C(=O)N1CCC[C@H]1CN(CCc1ccccc1)C(=O)C(F)(F)F` [Compound 3], for which the EC50 in the assay on SKOV-3 was found to be 67 nM. For `CN[C@@H](C)C(=O)N[C@@H](Cc1ccc(C#Cc2ccc(C[C@H](NC(=O)[C@H](C)NC)C(=O)N3CCC[C@H]3CN(CCc3ccccc3)C(=O)C(F)(F)F)cc2)cc1)C(=O)N1CCC[C@H]1CN(CCc1ccccc1)C(=O)C(F)(F)F` [Compound 4], the EC50 was 37 nM with SKOV-3 and 159 nM in the assay on MDA-MB-231. `CN[C@@H](C)C(=O)N[C@@H](Cc1ccc(C#CCO[C@H](C)[C@H](NC(=O)[C@H](C)NC)C(=O)N2CCC[C@H]2CN(CCc2ccccc2)C(=O)[C@H](N)Cc2ccc(OC)cc2)cc1)C(=O)N1CCC[C@H]1CN(CCc1ccccc1)C(=O)C(F)(F)F` [Compound 5]: the EC50 in the assay on SKOV-3 was determined as 57 nM. With `CN[C@@H](C)C(=O)N[C@@H](Cc1ccc(C#CCO[C@H](C)[C@H](NC(=O)[C@H](CO)NC)C(=O)N2CCC[C@H]2CN(CCc2ccccc2)C(=O)[C@H](N)Cc2ccc(OC)cc2)cc1)C(=O)N1CCC[C@H]1CN(CCc1ccccc1)C(=O)C(F)(F)F` [Compound 6], in the assay with SKOV-3, the EC50 was 557 nM.

Consider `CN[C@@H](C)C(=O)N[C@H](C(=O)N1CCC[C@H]1CN(CCc1ccccc1)C(=O)[C@H](N)Cc1ccc(OC)cc1)[C@@H](C)OCC#Cc1ccc(C[C@H](NC(=O)[C@H](CO)NC)C(=O)N2CCC[C@H]2CN(CCc2ccccc2)C(=O)C(F)(F)F)cc1` [Compound 7], for which the EC50 in the assay with SKOV-3 came to 136 nM.

For the compound `CN[C@@H](CO)C(=O)N[C@@H](Cc1ccc(C#CCO[C@H](C)[C@H](NC(=O)[C@H](CO)NC)C(=O)N2CCC[C@H]2CN(CCc2ccccc2)C(=O)[C@H](N)Cc2ccc(OC)cc2)cc1)C(=O)N1CCC[C@H]1CN(CCc1ccccc1)C(=O)C(F)(F)F` [Compound 8], in the assay on SKOV-3, the EC50 amounted to 1920 nM.
